Patent US20200010910A1, “Cytotoxic Chemotherapy-Based Predictive Assays for Acute Myeloid Leukemia” (The Regents of The University of California, priority 2017, published 2020)

Assays:
[1] = system: PDX Model BL0440; assay: drug-DNA adducts in PDX tumor by AMS; assay type: in vivo, NSG mice; details: microdose 0.375 mg/kg carboplatin, 24 h
Source text: (§1) Female NSG mice (5-8 weeks of age, body weight: 20 to 25 g) were obtained from Jackson Laboratories (CA, USA). All animals were kept under pathogen-free conditions and were allowed to acclimatize for at least 4 days prior to any experiments. PDX models bearing the indicated patient derived xenografts were created by subcutaneous injection at the flank of 1 mm^3 tumor tissue. To establish multiple PDXs to allow efficacy studies with multiple drugs, PDXs from passage 2-4 were minced into 1 mm^3 sections and injected subcutaneously into multiple mice. At least 3 mice were used for each treatment group. Tumors were allowed to grow to at about 100 mm^3 before being assessed for drug sensitivity or the induction of DNA adducts by the administration of a microdose or a therapeutic dose of labeled drug. To assess tumor response to chemotherapy, cisplatin was administered at 2 mg/kg IV every 7 days for a total of 3 cycles, or gemcitabine was administered at 150 mg/kg IP every 7 days for a total of 4 cycles. G/C combination chemotherapy consisted of the simultaneous administration of both drugs using the schema described above. Tumor growth was assessed by measuring palpable tumors with a caliper and calculating tumor volume. Drug-DNA adduct frequencies were measured in tumor tissue collected 24 hours after intravenous injection of labeled drug and stored at −80° C. until DNA isolation. DNA was isolated using a modified Wizard procedure (Promega), quantitated by spectrophotometry, and then stored frozen at −20° C. until AMS analysis. Ten micrograms of DNA per sample was converted to graphite and measured by AMS for 14C quantification as previously described.
(§2) NSG mice bearing the indicated PDX tumors were injected with a microdose of ^14C-labeled carboplatin (FIG. 22A) or ^14C-labeled gemcitabine (FIG. 22B). The microdose of ^14C-labeled carboplatin was 0.375 mg/kg carboplatin, 50,000 dpm/g. The microdose of ^14C-labeled gemcitabine was 0.092 mg/kg gemcitabine, 1000 dpm/g. The doses of each drug administered to the mice were chosen to target 1 μM in plasma concentration of carboplatin and 0.3 μM in plasma concentration of gemcitabine. These plasma concentrations represent 1% of the approximate peak plasma concentration during human chemotherapy. Animals were sacrificed after 24 h and drug-DNA adduct frequency was determined from collected tumor tissue by AMS measurements of ^14C in tumor DNA. Carboplatin DNA-adduct levels correlate with PDX model sensitivity to cisplatin at 24 h after microdosing (FIG. 22A). Gemcitabine DNA-adduct levels correlate with PDX model sensitivity to gemcitabine at 24 h after microdosing (FIG. 22B). […] There is no significant difference in carboplatin-DNA monoadduct levels between the three resistant PDX models. […]

[2] = system: PDX Model BL0293; assay: drug-DNA adducts in PDX tumor by AMS; assay type: in vivo, NSG mice; details: microdose 0.375 mg/kg carboplatin, 24 h
Source text: as §1, §2

[3] = system: six breast cancer cell lines; assay: carboplatin-DNA monoadducts by AMS in cell culture; assay type: cell-based, human; details: 4 hours exposure, range over cell lines and time points
Description: Cells were seeded in 60-mm dishes at a density of 1×10^6 cells/dish and allowed to attach overnight in a 37° C. humidified atmosphere containing 5% C02. Cells were treated with 1 μM (a relevant microdose concentration) and 100 μM (a therapeutically relevant concentration) carboplatin. Both the microdose and the therapeutic cell culture treatments included 0.3 μM of [^14C]carboplatin at a final concentration 50,000 dpm/ml for 4 hours, followed by washing and incubation in culture medium free of carboplatin. […] The number of carboplatin-DNA monoadducts was calculated based on the ^14C content in genomic DNA as measured by AMS. […] The concentration of the DNA was determined by its absorption at 260 nm using a Nanodrop spectrophotometer, and then the samples were stored frozen at −80° C. For AMS analysis, a DNA sample was thawed, mixed well by vortexing, and 1-10 μg of DNA was then submitted for AMS analysis, which includes the addition of 1.0 mg of tributyrin as a carrier, followed by combustion to CO2 and reduction to graphite according to published protocols (Ognibene, Ted J., et al. “A high-throughput method for the conversion of CO2 obtained from biochemical samples to graphite in septa-sealed vials for quantification of 14C via accelerator mass spectrometry.” Analytical chemistry 75.9 (2003): 2192-2196). […]

[4] = carboplatin plasma pharmacokinetics in mice; assay type: in vivo, Balb/c mice
Description: Balb/c mice received a bolus [^14C]carboplatin tail vein injection at microdose (0.373 mg/kg; 50,000 dpm/gm) or therapeutic dose (37.3 mg/kg; 50,000 dpm/gm). Mice were sacrificed in triplicate at 15 min, 1 h, 2 h, 8 h and 24 h. Concentrations of carboplatin in plasma were measured by liquid scintillation counting at each time point.

[5] = safety of radiolabeled microdose in patients; details: IV microdose, 1% of the therapeutic dose
Description: Microdoses of the [^14C]Carboplatin were administered to human cancer patients as a diagnostic reagent, followed by full dose platinum-based chemotherapy and evaluation of response. Within four weeks of the [^14C]carboplatin microdose, these patients received standard of care chemotherapy for their disease, which included either carboplatin or cisplatin. The patient population consisted of non-small cell lung cancer patients (NSCLC), stage IV with measurable lesions, and bladder transitional cell carcinoma (TCC) patients, stage II disease and above for neoadjuvant treatment, or stage III and IV metastatic disease with measurable lesions for palliative chemotherapy. Patients were identified for this study as having measurable lesions using the Response Evaluation Criteria in Solid Tumor (RECIST), an Eastern Cooperative Oncology Group performance status of <2, and adequate bone marrow and vital organ function. PBMC and tumor tissue were collected from the patients for analysis of carboplatin-DNA monoadduct frequencies. Toxicity of the [^14C]carboplatin diagnostic reagent administered as a microdose was assessed using Common Terminology Criteria for Adverse Events (CTCAE). Toxicities of grade 3 and above were also collected for patient specific toxic response to full dose chemotherapy for correlation analysis to carboplatin-DNA monoadduct frequency. Patient response to chemotherapy was evaluated using the RECIST for correlation to carboplatin-DNA monoadduct frequency.
The dose of carboplatin in the diagnostic microdose was chosen to be sub-toxic and non-therapeutic, to minimize patient chemical and radiation exposure, and to result in AMS measurable carboplatin-DNA monoadducts. Nineteen patients have been administered at least one microdose of [^14C]carboplatin via IV infusion as a diagnostic reagent. Patient toxicity related to the microdose was monitored from the time of IV microdose until the patients received their first chemotherapy. […] The total radioactive dose given to a 75 kg patient after an IV microdose of [^14C]carboplatin is calculated to be 338 μCi. […]

## N.N.O=C([O-])C1(C(=O)[O-])CCC1.[Pt+2] [carboplatin]
[1]
  mean carboplatin-DNA monoadduct level: 2.73±0.661 adducts per 10^8 nucleotides
[2]
  mean carboplatin-DNA monoadduct level: 1.46±0.520 adducts per 10^8 nucleotides
[3]; microdose 1 μM carboplatin
  DNA damage concentrations (carboplatin-DNA monoadducts): 1-15 monoadducts per 10^8 nt
[3]; therapeutic dose 100 μM carboplatin
  DNA damage concentrations (carboplatin-DNA monoadducts): 100-1500 monoadducts per 10^8 nt
[4]; microdose 0.373 mg/kg
  Cmax: 1 µM
[4]; microdose 0.373 mg/kg bolus tail vein
  initial T1/2: 50 min
[4]; therapeutic dose 37.3 mg/kg
  Cmax: 127 ± 30 µM
[4]; therapeutic dose 37.3 mg/kg bolus tail vein
  initial T1/2: 50 min
[5]
  clinical side effects: None of the clinical side effects associated with standard therapeutic doses of carboplatin were observed
  tolerability of radiolabeled microdose: well tolerated
